The target in the assay is T1, human poly-histidine tagged KSP motor domain (KSP(367H)) (Homo sapiens, UniProt P52732).
T1 construct: were used to amplify the motor domain and the neck linker region; made in house; host or cells: E. coli BL21 (DE3), pRSETa
T1 sequence (P52732 18-359 limits assumed): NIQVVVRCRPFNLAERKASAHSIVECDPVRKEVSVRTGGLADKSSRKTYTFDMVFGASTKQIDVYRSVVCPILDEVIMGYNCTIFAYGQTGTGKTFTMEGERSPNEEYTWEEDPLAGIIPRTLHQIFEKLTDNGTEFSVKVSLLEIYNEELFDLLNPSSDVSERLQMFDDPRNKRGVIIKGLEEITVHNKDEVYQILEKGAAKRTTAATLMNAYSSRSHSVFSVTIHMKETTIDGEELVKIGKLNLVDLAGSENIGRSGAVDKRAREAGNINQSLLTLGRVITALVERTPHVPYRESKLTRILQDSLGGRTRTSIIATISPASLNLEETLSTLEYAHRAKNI
Nature of the assay: Kinesin ATPase In Vitro Assay. The format is biochemical. To be noted: microtubules, 1 mM ATP, 23° C.; free phosphate by quinaldine red/ammonium molybdate. An excerpt: I. Kinesin ATPase In Vitro Assay
Cloning and expression of human poly-histidine tagged KSP motor domain (KSP(367H))
Plasmids for the expression of the human KSP motor domain construct were cloned by PCR using a pBluescript full length human KSP construct (Blangy et al., Cell, vol. 83, pp 1159-1169, 1995) as a template. The N-terminal primer 5′-[…] (SEQ.ID.NO.: 1) and the C-terminal primer 5′-[…] […] (SEQ.ID.NO.: 2) were used to amplify the motor domain and the neck linker region. The PCR products were digested with AseI and XhoI, ligated into the NdeI/XhoI digestion product of pRSETa (Invitrogen) and transformed into E. coli BL21 (DE3).
Cells were grown at 37° C. to an OD600 of 0.5. […]
The kinesin motor domain is incubated with microtubules, 1 mM ATP (1:1 MgCl2: Na-ATP), and compound at 23° C. in buffer containing 80 mM K-HEPES (pH 7.0), 1 mM EGTA, 1 mM DTT, 1 mM MgCl2, and 50 mM KCl. […] Free phosphate from the ATP hydrolysis reaction is measured via a quinaldine red/ammonium molybdate assay by adding 150 μl of quench C buffer containing a 2:1 ratio of quench A:quench B. Quench A contains 0.1 mg/ml quinaldine red and 0.14% polyvinyl alcohol; quench B contains 12.3 mM ammonium molybdate tetrahydrate in 1.15 M sulfuric acid. The reaction is incubated for 10 minutes at 23° C., and the absorbance of the phospho-molybdate complex is measured at 540 nm.

Some results are limits rather than exact numbers.

A word on the IC50: it is the midpoint of a concentration-inhibition curve. In turn, `CC(C(=O)N1N=C(c2cc(F)ccc2F)CC1(CO)c1ccccc1)N1CCN(C)CC1` (racemic) [Compound 3-4, {3-(2,5-difluorophenyl)-1-[2-(4-methylpiperazin-1-yl)propanoyl]-5-phenyl-4,5-dihydro-1H-pyrazol-5-yl}methanol] had a half-maximal inhibitory concentration (IC50) not above 50 µM.

Source of the values: patent US7553838B2, “Mitotic kinesin inhibitors” (Merck & Co. Inc., priority 2004, dated 2009).
